Data as given in publication PMC10324308, “Biodegradation of Amphipathic Fluorinated Peptides Reveals a New Bacterial Defluorinating Activity and a New Source of Natural Organofluorine Compounds” (Environmental Science & Technology, 2023).
Where a SMILES comes first, the peptide text is derived from it. [ ]: non-standard residue; d: D form. Abu(4,4,4-F3) = N[C@@H](CC(F)(F)F)C(=O)O; Abu(4,4-F2) = N[C@@H](CC(F)F)C(=O)O; 4Abz = Nc1ccc(C(=O)O)cc1; Abu = CC[C@H](N)C(=O)O

How the values were obtained:
β-trypsin (pancreas) = assay: Peptide digestion assay with β-trypsin; format: in vitro ADME; conditions: after 2 h; 500 μM peptide, trypsin 0.075 μM, 50 mM bis-tris propane + 20 mM CaCl2, pH 8, 37 °C, 300 rpm; HPLC (DAD-280 nm); triplicates
Protocol: (§1) Freeze-dried peptides AbuK16, MfeGlyK16, DfeGlyK16, and TfeGlyK16 were dissolved in 100 μL of buffer (50 mM bis-tris propane + 20 mM CaCl2, pH 8) to a final concentration of 500 μM. The peptides were incubated with different proteolytic enzymes (10 μL in buffer): trypsin (0.075 μM), elastase (0.45 μM), proteinase K (0.075 μM), and bromelain (4.5 μM). The experiments were incubated at either 37 °C (trypsin and proteinase K) or 30 °C (elastase and bromelain) in a Thriller thermoshaker-incubator (VWR International, Radnor, PA, USA) with shaking at 300 rpm. Aliquots (15 μL) were taken at fixed time points and quenched with 90 μL of a solution of 30% acetic acid in water containing 133 μM Ac-[4]Abz-Gly-OH as a reference. Peptide degradation was monitored by high-performance liquid chromatography (HPLC) using a Hitachi Primaide UV-HPLC system (VWR/Hitachi, Darmstadt, Germany). A Kinetex RP-C18 ([…], 100 Å, 250 × 4.6 mm, Phenomenex, USA) column and a SecurityGuard Cartridge Kit equipped with a C18 cartridge (4 × 3.0 mm, Phenomenex, USA) as a pre-column was used. The mobile phases employed were 0.1% aqueous […] (TFA) (solvent A) and acetonitrile + 0.1% TFA (solvent B). The solvent conditions for analysis were as follows: 0–5 min, 5% B; 5–20 min, 5–90% B; 20–23 min, 90–100% B; 23–25 min, 100% B; 25–27 min, 100–5% B; and 27–30 min, 5% B. In all cases, the peaks corresponding to each peptide sample (full-length peptides) and the reference sample were integrated and used to determine the amount of the substrate still present in solution. The content of starting material after 5 min was termed as absolute amount for simplicity. All experiments were performed in triplicates, and error bars were obtained as standard deviations of measurements.
(§2) Figure 2 Proteolytic digestion of AbuK16, MfeGlyK16, DfeGlyK16, and TfeGlyK16 by the serine proteases β-trypsin, elastase, proteinase K, and bromelain (pineapple stem) in 50 mM bis-tris propane + 20 mM CaCl2, pH 8, at 37 °C (β-trypsin and proteinase K) or 30 °C (elastase and bromelain). Real-time detection of peptide proteolysis and calculation of remaining peptide amounts were accomplished by HPLC analysis (DAD-280 nm).

[1] = target: T1, bromelain (pineapple stem) (Ananas comosus, UniProt P14518); assay: Peptide digestion assay with bromelain; format: in vitro ADME; conditions: 500 μM peptide, bromelain 4.5 μM, 50 mM bis-tris propane + 20 mM CaCl2, pH 8, 30 °C, HPLC (DAD-280 nm); for digestion by bromelain: 300 rpm, triplicates
T1 construct: purchased Sigma-Aldrich (Steinheim, Germany); host or cells: pineapple stem
T1 sequence (P14518 1-212): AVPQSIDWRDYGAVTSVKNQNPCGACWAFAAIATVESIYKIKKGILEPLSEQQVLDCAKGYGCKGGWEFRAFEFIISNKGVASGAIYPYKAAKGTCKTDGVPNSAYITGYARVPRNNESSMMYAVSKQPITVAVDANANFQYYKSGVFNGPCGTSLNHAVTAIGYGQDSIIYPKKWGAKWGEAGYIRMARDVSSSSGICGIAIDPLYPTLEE
Protocol: as §1, §2

elastase (pancreas) = target: T2, elastase (pancreas) (Sus scrofa, UniProt P00772); assay: Peptide digestion assay with elastase; format: in vitro ADME; conditions: after 4 h; 500 μM peptide, elastase 0.45 μM, 50 mM bis-tris propane + 20 mM CaCl2, pH 8, 30 °C, 300 rpm; HPLC (DAD-280 nm); triplicates
T2 construct: purchased Sigma-Aldrich (Steinheim, Germany); host or cells: pancreas
Protocol: as §1, with “The solvent conditions for analysis were as follows: 0–5 min, 5% B; 5–20 min, 5–90% B; 20–23 min, 90–100% B; 23–25 min, 100% B; 25–27 min, 100–5% B; and 27–30 min, 5% B. In all cases, the peaks corresponding to each peptide sample (full-length peptides) and the reference sample were integrated and used to determine the amount of the substrate still present in solution. The content of starting material after 5 min was termed as absolute amount for simplicity. All experiments were performed in triplicates, and error bars were obtained as standard deviations of measurements.” left out

proteinase K = target: T3, proteinase K (Parengyodontium album, UniProt P06873); assay: Peptide digestion assay with proteinase K; format: in vitro ADME, Tritirachium album; conditions: 500 μM peptide, proteinase K 0.075 μM, 50 mM bis-tris propane + 20 mM CaCl2, pH 8, 37 °C, HPLC (DAD-280 nm), triplicates; for proteolytic stability against proteinase K: after 4 h, 300 rpm
T3 construct: purchased Sigma-Aldrich (Steinheim, Germany)
Protocol: as §1
Figure 2 Proteolytic digestion of AbuK16, MfeGlyK16, DfeGlyK16, and TfeGlyK16 by the serine proteases β-trypsin, elastase, proteinase K, and bromelain (pineapple stem) in 50 mM bis-tris propane + 20 mM CaCl2, pH 8, at 37 °C (β-trypsin and proteinase K) or 30 °C (elastase and bromelain). […]

T3 sequence (P06873 106-384): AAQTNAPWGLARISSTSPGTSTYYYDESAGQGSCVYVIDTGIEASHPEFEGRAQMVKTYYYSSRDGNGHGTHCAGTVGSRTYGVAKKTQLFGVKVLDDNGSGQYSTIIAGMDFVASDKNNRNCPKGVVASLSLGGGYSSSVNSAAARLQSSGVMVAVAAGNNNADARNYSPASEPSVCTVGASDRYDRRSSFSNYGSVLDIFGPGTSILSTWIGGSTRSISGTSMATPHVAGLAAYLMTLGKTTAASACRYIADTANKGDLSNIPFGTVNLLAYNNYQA
T2 sequence (P00772 27-266): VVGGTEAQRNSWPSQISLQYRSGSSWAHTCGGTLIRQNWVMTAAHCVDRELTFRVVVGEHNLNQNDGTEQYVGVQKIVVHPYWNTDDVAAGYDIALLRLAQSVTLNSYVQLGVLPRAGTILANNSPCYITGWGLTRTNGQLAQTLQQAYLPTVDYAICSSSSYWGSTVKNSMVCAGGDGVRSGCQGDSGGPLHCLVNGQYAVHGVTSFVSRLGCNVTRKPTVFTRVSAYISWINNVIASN

Structure (SMILES)	remaining full-length peptide after digestion by β-trypsin (β-trypsin (pancreas))	digestion by bromelain [1]	remaining full-length peptide after digestion by elastase (elastase (pancreas))	proteolytic stability against proteinase K (proteinase K)	digestion by proteinase K (proteinase K; within 24 h)	remaining peptide after digestion by bromelain ([1]; after 3 days incubation)
CC[C@H](NC(C)=O)C(=O)N[C@@H](CCCCN)C(=O)N[C@@H](CC)C(=O)N[C@@H](CCCCN)C(=O)N[C@@H](CC)C(=O)N[C@@H](CCCCN)C(=O)N[C@@H](CC)C(=O)N[C@@H](CCCCN)C(=O)N[C@@H](CC)C(=O)N[C@@H](CCCCN)C(=O)N[C@@H](CC)C(=O)N[C@@H](CCCCN)C(=O)N[C@@H](CC)C(=O)N[C@@H](CCCCN)C(=O)N[C@@H](CC)C(=O)N[C@@H](CCCCN)C(=O)Nc1ccc(C(N)=O)cc1 [AbuK16, Ac-(Abu-Lys)8-[4]Abz-NH2] (Ac-[Abu]K[Abu]K[Abu]K[Abu]K[Abu]K[Abu]K[Abu]K[Abu]K[4Abz]-NH2)	comparably higher amounts of peptide were detected	digested				
CC(=O)N[C@@H](CC(F)F)C(=O)N[C@@H](CCCCN)C(=O)N[C@@H](CC(F)F)C(=O)N[C@@H](CCCCN)C(=O)N[C@@H](CC(F)F)C(=O)N[C@@H](CCCCN)C(=O)N[C@@H](CC(F)F)C(=O)N[C@@H](CCCCN)C(=O)N[C@@H](CC(F)F)C(=O)N[C@@H](CCCCN)C(=O)N[C@@H](CC(F)F)C(=O)N[C@@H](CCCCN)C(=O)N[C@@H](CC(F)F)C(=O)N[C@@H](CCCCN)C(=O)N[C@@H](CC(F)F)C(=O)N[C@@H](CCCCN)C(=O)Nc1ccc(C(N)=O)cc1 [DfeGlyK16, Ac-(DfeGly-Lys)8-[4]Abz-NH2] (Ac-[Abu(4,4-F2)]K[Abu(4,4-F2)]K[Abu(4,4-F2)]K[Abu(4,4-F2)]K[Abu(4,4-F2)]K[Abu(4,4-F2)]K[Abu(4,4-F2)]K[Abu(4,4-F2)]K[4Abz]-NH2)	mostly consumed	digested	lower amounts of DfeGlyK16 and TfeGlyK16 detected than AbuK16 and MfeGlyK16			
CC(=O)N[C@@H](CCF)C(=O)N[C@@H](CCCCN)C(=O)N[C@@H](CCF)C(=O)N[C@@H](CCCCN)C(=O)N[C@@H](CCF)C(=O)N[C@@H](CCCCN)C(=O)N[C@@H](CCF)C(=O)N[C@@H](CCCCN)C(=O)N[C@@H](CCF)C(=O)N[C@@H](CCCCN)C(=O)N[C@@H](CCF)C(=O)N[C@@H](CCCCN)C(=O)N[C@@H](CCF)C(=O)N[C@@H](CCCCN)C(=O)N[C@@H](CCF)C(=O)N[C@@H](CCCCN)C(=O)Nc1ccc(C(N)=O)cc1 [MfeGlyK16, Ac-(MfeGly-Lys)8-[4]Abz-NH2]	comparably higher amounts of peptide were detected	digested		higher proteolytic stability of MfeGlyK16 than that for AbuK16 and DfeGlyK16		
CC(=O)N[C@@H](CC(F)(F)F)C(=O)N[C@@H](CCCCN)C(=O)N[C@@H](CC(F)(F)F)C(=O)N[C@@H](CCCCN)C(=O)N[C@@H](CC(F)(F)F)C(=O)N[C@@H](CCCCN)C(=O)N[C@@H](CC(F)(F)F)C(=O)N[C@@H](CCCCN)C(=O)N[C@@H](CC(F)(F)F)C(=O)N[C@@H](CCCCN)C(=O)N[C@@H](CC(F)(F)F)C(=O)N[C@@H](CCCCN)C(=O)N[C@@H](CC(F)(F)F)C(=O)N[C@@H](CCCCN)C(=O)N[C@@H](CC(F)(F)F)C(=O)N[C@@H](CCCCN)C(=O)Nc1ccc(C(N)=O)cc1 [TfeGlyK16, Ac-(TfeGly-Lys)8-[4]Abz-NH2] (Ac-[Abu(4,4,4-F3)]K[Abu(4,4,4-F3)]K[Abu(4,4,4-F3)]K[Abu(4,4,4-F3)]K[Abu(4,4,4-F3)]K[Abu(4,4,4-F3)]K[Abu(4,4,4-F3)]K[Abu(4,4,4-F3)]K[4Abz]-NH2)	mostly consumed	resistant to this protease	lower amounts of DfeGlyK16 and TfeGlyK16 detected than AbuK16 and MfeGlyK16	pronounced stability	largely digested	noticeable amounts of this peptide were still present
